# Laboratory results as given in patent US20060142247A1, “Tricyclic heterocycles” (priority 2004, published 2006).
# Assays:
# [1] = molecular target: T1, Aurora A (Homo sapiens, UniProt O14965); assay: IC50 determination for inhibitors of Aurora A (96 MTP-ELISA); type: biochemical; conditions: His4-tagged full-length Aurora A 250 ng/ml, PKB-GSK2 200 nM, ATP 4 μM, 90 min room temperature, read-out: IC50 Aurora A kinase inhibition
# T1 construct: C-terminally Histidine4 (His4)-tagged Aurora A full-length protein; His4 (C)
# T1 sequence (O14965 1-403): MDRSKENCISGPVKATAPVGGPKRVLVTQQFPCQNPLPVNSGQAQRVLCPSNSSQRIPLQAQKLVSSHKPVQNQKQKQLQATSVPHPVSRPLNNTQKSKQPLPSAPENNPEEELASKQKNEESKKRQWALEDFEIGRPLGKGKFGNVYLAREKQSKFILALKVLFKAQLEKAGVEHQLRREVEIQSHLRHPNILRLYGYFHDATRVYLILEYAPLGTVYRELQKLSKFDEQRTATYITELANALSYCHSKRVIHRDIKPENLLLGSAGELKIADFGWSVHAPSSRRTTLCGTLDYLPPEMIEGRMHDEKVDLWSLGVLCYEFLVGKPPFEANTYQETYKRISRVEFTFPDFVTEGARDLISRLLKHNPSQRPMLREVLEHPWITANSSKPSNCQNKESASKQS
# Experimental: Aurora A is a serine threonine kinase involved in spindle assembly and chromosome segregation. The assay is a typically ELISA-type assay where biotinylated substrate (PKB-GSK2) is phosphorylated. Phosphorylation is detected by peroxidase (POD) labelled polyclonal antibody (PAK<M-Ig>S-IgG-POD) and phosphopeptide monoclonal antibody (Mab) (MAK<P-GSK>M-27E5-IgG). The assay is validated for IC50-determination.
# Assay plates: 96-well polystyrene plates, streptavidin-coated,
# Samples: 10 mM in dimethylsulfoxide (DMSO)
# Aurora A-His-4: C-terminally Histidine4 (His4)-tagged Aurora A full-length protein, stock solution 0.7 mg/ml, final conc.: 250 ng/ml
# PKB-GSK2: biotinylated peptide derived from human GSK3-alpha sequence (Biotin-SGRARTSSFAEPGG-CONH2), stock solution 600 μM, final conc.: 200 nM
# PAK<M-Ig>S-IgG-POD: Anti-mouse IgG, horse radish peroxidase(HRP)-linked Antibody, diluted in 3% BSA/PBS-T (1:10000), (Cell Signaling, Cat. No.: 7076)
# MAK<P-GSK>M-27E5-IgG: Phospho-GSK-3-alpha (Ser 21) (27E5) Monoclonal Antibody, stock solution 1.85 mg/ml, diluted in 3% BSA/PBS-T (1:6000), final conc.: 0.31 μg/ml, (Cell Signaling, Cat. No.: 9337B)
# ATP: Adenosine-5′-triphosphate 1 mM, diluted in kinase buffer, (Roche Diagnostics GmbH, Cat. No.: 127531-001,), final conc.: 4 μM
# TRIS: 2-Amino-2-hydroxymethyl-1,3-propoanediol (“tris-(hydroxymethyl)-aminomethane”) (MERCK, Cat. No.: 108382.2500)
# BSA: Bovine Serum Albumin Fraction V, fatty acid free (Roche Diagnostics GmbH, Cat. No. 9100221)
# EDTA Titriplex III (di-Sodium-EDTA di-Hydrate), 120 mM, (MERCK, Cat. No.: 1.08418.1000)
# ABTS buffer: ABTS (2,2′-azino-bis(3-ethylbenzthiazoline-6-sulfonic acid)) 16.7 mg/ml (Roche Diagnostics GmbH, Cat. No.: 1204530) • ABTS tablets: dissolve one ABTS tablet in 50 ml of working solution (ABTS buffer) (Roche Diagnostics GmbH, Cat. No.: 1112422 ) • Tween 20: Polysorbat 20 (Roche Diagnostics GmbH, Cat. No.: 10006394-001) • DTT: 1,4-Dithiothreitol (Roche Diagnostics GmbH, Cat. No.: 197777) • MgCl2×6H2O MERCK, Cat. No.: 105833.1000 • Kinase buffer: 50 mM TRIS, 10 mM MgCl2, 1 mM DTT, 0.1% Tween 20, pH 7.8 PBS-T (=Wash buffer) (PBS-T)10 g/l PBS(Phosphate buffered saline) with 0.033% Tween 20 • 3% BSA/PBS-T: 3% BSA dissolved in PBS-T Method
# This assay is performed in 96-well format for IC50 determination with 5 samples (each with 8 concentrations by twofold testing), 100 μl incubation volume and the following plate layout:
# S samples, with ATP, 1% DMSO, final conc.: a=100 μM, b=20 μM, c=4 μM, d=0.8 μM, e=0.16 μM, f=0.032 μM, g=0.0064 μM, h=0.00128 μM Step/Action • (1) Sample preparation: add 24 μl per well samples (descending sequence) diluted in kinase buffer to assay plate (final conc. for DMSO 1%). • 2. Add directly 16 μl Aurora-A-his-4 diluted in kinase buffer to assay plate. • 3. Add directly 40 μl per well PKB-GSK2/ATP mixture to assay plate, (final conc.: Aurora A=250 ng/ml, GSK2=200 nM, ATP=4 μM). Negative control: without ATP. • 4. Incubate assay plate for exactly 90 min at room temperature. • 5. Stop reaction by adding 20 μl EDTA in all wells. • 6. Wash assay plate 3× with 200 μl washing buffer per well. • 7. Add 100 μl MAK<P-GSK>M27E5-IgG (1:10000) and PAK<M-Ig>S-IgG-POD (1:6000) dissolved in 3% BSA/PBS-T to assay plate per well. • 8. Incubate assay plate for 60 min at room temperature. • 9. Wash assay plate 3× with 200 μl washing buffer per well • 10. Add 100 μl ABTS solution to assay plate per well, incubate for approx. 4 min at RT on MTP shaker. • 11. Measure absorption at 405/492 nm. • 12. Calculate % inhibition as: (1−(Esample−ENC)/(EPC−ENC))×100 1)
# 13. Calculate IC50 using a non-linear curve fit (XLfit software (ID Business Solution Ltd., Guilford, Surrey, UK))
# [2] = tested on: HCT 116 cells; assay: Viability assay HCT 116 cells (CellTiter-Glo); type: cell-based; conditions: Homo sapiens, HCT-116, 120 h, HCT 116 human colon carcinoma cells, 5 days incubation, CellTiter-Glo luminescence
# Experimental: Viability Assay—HCT 116 Cells
# A viability assay was performed using the CellTiter-Glo® Luminescent Cell Viability Assay (see Promega Corporation's Technical Bulletin No. 288, pp. 1-11 [revised 2/04] which is hereby incorporated by reference in its entirety). This assay is a homogeneous method of determining the number of viable cells in culture based on quantitation of the ATP present, an indicator of metabolically active cells. The assay is designed for use with multiwell formats, making it ideal for automated high-throughput screening (HTS), cell proliferation and cytotoxicity assays. The homogeneous assay procedure involves adding a single reagent (containing luciferase, luciferan substrate, and buffer) directly to cells cultured in serum-supplemented medium. Cell washing, removal of medium and multiple pipetting steps are not required. The system detects as few as 15 cells/well in a 384-well format in 10 minutes after adding reagent and mixing.
# The homogeneous “add-mix-measure” format results in cell lysis and generation of a luminescent signal proportional to the amount of ATP present. The amount of ATP is directly proportional to the number of cells present in culture. The above-referenced assay generates a “glow-type” luminescent signal, produced by the luciferase reaction, which has a half-life generally greater than five hours, depending on cell type and medium used. The extended half-life eliminates the need to use reagent injectors and provides flexibility for continuous or batch mode processing of multiple plates. The unique homogeneous format avoids errors that may be introduced by other ATP measurement methods that require multiple steps.
# HCT 116 cells (human colon carcinoma, ATCC-No. CCl-247) were cultivated in RPMI 1640 medium with GlutaMAX™ I (cell culture media that contains L-Alanyl-L-Glutamine [a stabilized a form/source of L-Glutamine] from Invitrogen, Cat-No. 61870-010), 2.5% Fetal Calf Serum (FCS, Sigma Cat-No. F4135 (FBS)); 100 Units/ml penicillin/100 μg/ml streptomycin (=Pen/Strep from Invitrogen Cat. No. 15140). For the assay the cells were seeded in 384 well plates, 1000 cells per well, in the same medium. The next day the test compounds were added in various concentrations ranging from 30 μM to 0.0015 μM (10 concentrations, 1:3 diluted). After 5 days the viability assay was done according to the instructions of the manufacturer. In brief: the cell-plate was equilibrated to room temperature for approximately 30 minutes and than the reagent (containing luciferase, luciferan substrate, and buffer) was added. The contents were carefully mixed for 15 minutes to induce cell lysis. After 45 minutes the luminescent signal was measured in Victor 2, (scanning multiwell spectrophotometer, Wallac).
# Medium: RPMI 1640 with cell culture media containing L-Alanyl-L-Glutamine [GlutaMAX™ I (Invitrogen, Cat-Nr. 61870)], 5% FCS (Sigma Cat.-No. F4135), Pen/Strep (Invitrogen, Cat No. 15140). • HCT116 (ATCC-No. CCl-247): 1000 cells in 60 μl per well of 384 well plate (Greiner 781098, μClear-plate white) • After seeding incubate plates 24 h at 37° C., 5% CO2 2nd. Day: Induction (Treatment with Compounds, 10 Concentrations):
# In order to achieve a final concentration of 30 μM as highest concentration […] of 10 mM compound stock solution were added directly to 163 μl media. Then step e) of the dilution procedure described below, was followed.
IC50 [1] [µM],IC50 [2] [µM],Structure (SMILES)
0.001 to 0.1,,"CN(C)CCNC(=O)CN1C(=O)C(C)(C)c2cc3nc(-c4n[nH]c5ccccc45)[nH]c3cc21 [Example 38, N-(2-Dimethylamino-ethyl)-2-[2-(1H-indazol-3-yl)-7,7-dimethyl-6-oxo-6,7-dihydro-3H-imidazo[4,5-f]indol-5-yl]-acetamide]"
0.001 to 0.1,,"COCCN1C(=O)C(C)(C)c2cc3nc(-c4n[nH]c5ccccc45)[nH]c3cc21 [Example 18, 2-(1H-Indazol-3-yl)-5-(2-methoxy-ethyl)-7,7-dimethyl-5,7-dihydro-3H-imidazo[4,5-f]indol-6-one]"
0.001 to 0.1,,"CC1(C)C(=O)N(CC(=O)NCC(O)CO)c2cc3[nH]c(-c4n[nH]c5ccccc45)nc3cc21 (stereo not drawn) [Example 48, N-(2,3-Dihydroxy-propyl)-2-[2-(1H-indazol-3-yl)-7,7-dimethyl-6-oxo-6,7-dihydro-3H-imidazo[4,5-f]indol-5-yl]-acetamide]"
0.001 to 0.1,,"CC1(C)C(=O)N(Cc2cccnc2)c2cc3[nH]c(-c4n[nH]c5ccccc45)nc3cc21 [Example 16, 2-(1H-Indazol-3-yl)-7,7-dimethyl-5-pyridin-3-ylmethyl-5,7-dihydro-3H-imidazo[4,5-f]indol-6-one]"
0.001 to 0.1,,"CC1(C)C(=O)N(CC(=O)N2CCCCC2)c2cc3[nH]c(-c4n[nH]c5ccccc45)nc3cc21 [Example 44, 2-(1H-Indazol-3-yl)-7,7-dimethyl-5-(2-oxo-2-piperidin-1-yl-ethyl)-5,7-dihydro-3H-imidazo[4,5-f]indol-6-one]"
0.001 to 0.1,,"CN1CCN(C(=O)CN2C(=O)C(C)(C)c3cc4nc(-c5n[nH]c6ccccc56)[nH]c4cc32)CC1 [Example 42, 2-(1H-Indazol-3-yl)-7,7-dimethyl-5-[2-(4-methyl-piperazin-1-yl)-2-oxo-ethyl]-5,7-dihydro-3H-imidazo[4,5-f]indol-6-one]"
0.001 to 0.1,,"CC1(C)C(=O)N(CCNC(=O)c2ccccc2)c2cc3[nH]c(-c4n[nH]c5ccccc45)nc3cc21 [Example 53, N-{2-[2-(1H-Indazol-3-yl)-7,7-dimethyl-6-oxo-6,7-dihydro-3H-imidazo[4,5-f]indol-5-yl]-ethyl}-benzamide]"
,0.1 to 1,"CC(C)N1C(=O)C(C)(C)c2cc3[nH]c(-c4n[nH]c5ccc(NS(=O)(=O)c6ccccc6S(C)(=O)=O)cc45)nc3cc21 [Example 143, N-[3-(5-Isopropyl-7,7-dimethyl-6-oxo-1,5,6,7-tetrahydro-imidazo[4,5-f]indol-2-yl)-1H-indazol-5-yl]-2-methanesulfonyl-benzenesulfonamide]"
,1 to 10,"CCN1C(=O)C(C)(C)c2cc3nc(-c4n[nH]c5cc(C(N)=O)ccc45)[nH]c3cc21 [Example 110, 3-(5-Ethyl-7,7-dimethyl-6-oxo-3,5,6,7-tetrahydro-imidazo[4,5-f]indol-2-yl)-1H-indazole-6-carboxylic acid amide]"
,0.1 to 1,"CC1(C)C(=O)Nc2cc3[nH]c(-c4n[nH]c5ccc(C(=O)NCc6ccccc6)cc45)nc3cc21 [Example 77, 3-(7,7-Dimethyl-6-oxo-3,5,6,7-tetrahydro-imidazo[4,5-f]indol-2-yl)-1H-indazole-5-carboxylic acid benzylamide]"
,1 to 10,"CN1CCN(C(=O)NCCN2C(=O)C(C)(C)c3cc4nc(-c5n[nH]c6ccccc56)[nH]c4cc32)CC1 [Example 59, 4-Methyl-piperazine-1-carboxylic acid {2-[2-(1H-indazol-3-yl)-7,7-dimethyl-6-oxo-6,7-dihydro-3H-imidazo[4,5-f]indol-5-yl]-ethyl}-amide]"
,0.1 to 1,"CCN1C(=O)C(C)(C)c2cc3nc(-c4n[nH]c5ccc(C(=O)N6CCSCC6)cc45)[nH]c3cc21 [Example 95, 5-Ethyl-7,7-dimethyl-2-[5-(thiomorpholine-4-carbonyl)-1H-indazol-3-yl]-5,7-dihydro-3H-imidazo[4,5-f]indol-6-one]"
